Earlier results, collected in patent publication US11324771B2 (priority 2020, dated 2022).
Where two headings read alike, the source gives them in different places.

Columns and labels:
[1] = not given; remark: listed apart in the source

## cobinamide dihydroxide dihydrogen phosphate (ester), mono (inner salt), 3′-ester with 5,6-dimethyl-1-α-D-ribofuranosyl-1H-benzimidazole [Hydroxocobalamin]
acetone
  solubility in acetone: practically insoluble
benzene
  solubility in benzene: practically insoluble
chloroform
  solubility in chloroform: practically insoluble
Dimethyl sulfoxide
  solubility in dimethyl sulfoxide: freely soluble
ether
  solubility in diethyl ether / ether: practically insoluble
Ethyl acetate
  solubility in ethyl acetate: practically insoluble
methanol
  solubility in methanol: freely soluble
water
  solubility in water: freely soluble
[1]; pH 1.2
  solubility in aqueous buffer: highly soluble
[1]; pH 4.5
  solubility in aqueous buffer: highly soluble
[1]; pH 6.8
  solubility in aqueous buffer: < 400 µg/mL
[1]; pH 7.5
  solubility in aqueous buffer: < 400 µg/mL
